The test has as its target T1, CX43 (connexin 43; recombinant human CX43) (Homo sapiens, UniProt P17302).
T1 construct: gene GJA1; recombinant human CX43 from GenScript, immobilised on CM5 chip
As to the kind of experiment: SPR, Biacore T200, CX43 immobilised on CM5 chip. It counts as binding. In general terms: In SPR one partner is held on a chip, and binding of the other changes the refractive index at the surface.

Each structure is given as a SMILES string.

T1 sequence (P17302 2-382): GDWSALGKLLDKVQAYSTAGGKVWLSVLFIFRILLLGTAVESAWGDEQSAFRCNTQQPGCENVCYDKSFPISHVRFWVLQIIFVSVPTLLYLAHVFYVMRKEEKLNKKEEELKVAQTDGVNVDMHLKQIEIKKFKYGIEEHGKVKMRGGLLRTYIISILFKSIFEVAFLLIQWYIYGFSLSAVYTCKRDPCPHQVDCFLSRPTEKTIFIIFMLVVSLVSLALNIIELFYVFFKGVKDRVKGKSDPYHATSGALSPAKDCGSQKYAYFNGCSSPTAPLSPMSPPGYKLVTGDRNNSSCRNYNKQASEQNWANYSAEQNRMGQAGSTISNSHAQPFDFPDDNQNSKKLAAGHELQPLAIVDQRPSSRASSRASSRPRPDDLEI

Consider `NC(=O)c1ccc[n+]([C@@H]2O[C@H](COP(=O)([O-])OP(=O)(O)OC[C@H]3O[C@@H](n4cnc5c(N)ncnc54)[C@H](O)[C@@H]3O)[C@@H](O)[C@H]2O)c1` [NAD^+], for which the dissociation constant (Kd) (commonly the free concentration of one partner at which half of the binding sites on the other are occupied at equilibrium, for simple one-to-one binding) is 14.2 pM.

These data come from paper PMC12559800, “A NADH Oxidase Nanozyme Restores Redox Homeostasis to Ameliorate Multi-Organ Aging and Ischemic Cardiomyopathy” (Research, 2025).
